Measurements from patent US20240164267A1, “GENETIC MECHANISM TO ENHANCE HEALTHY STEROLS AND HARD ENDOSPERM IN SEEDS” (Iowa State University Research Foundation, Inc., priority 2022, published 2024).

Legend:
ZmHMGR mRNA = experiment: Exogenous sterol feeding of maize seedlings, relative mRNA quantification of ZmHMGR; format: in vivo; conditions: for ZmHMGR mRNA: wild type W22 roots
ZmSMT2 mRNA = experiment: Exogenous sterol feeding of maize seedlings, relative mRNA quantification of ZmSMT2; format: in vivo; conditions: for ZmSMT2 mRNA: wild type W22 roots
Method: FIG. 6C-D show relative mRNA quantification of ZmHMGR and ZmSMT2 genes in Zmcyp710a8-1 background in response to various sterols (10 μM) for 4 hours in roots (FIG. 6C) and in shoots (FIG. 6D). ZmACTIN served as the reference gene for normalization. Data are means±SD. Asterisks indicate statistical significance by Students t-test compared to 0 h in FIG. 6A and to Mock in FIG. 6B, FIG. 6C, and FIG. 6D. *P<0.05 **P<0.01 ***P<0.001; ns, not significant.

[1] = tested on: Zmcyp710a8-1 mutant root metabolites; experiment: Exogenous stigmasterol feeding of Zmcyp710a8-1 mutant, metabolite levels in root tissue (GC/MS); format: in vivo, maize; conditions: root tissue of Zmcyp710a8-1 null mutant with exogenous stigmasterol feeding, compared with W22
Text: Relative metabolite levels in the two maize mutants compared to their wild type are shown as fold changes in Root and Shoot. […] Asterisks indicate statistical significance by Students t-test compared to Zmcyp710a8-1. *P<0.05 **P<0.01 ***P<0.001.
To identify cellular metabolites influenced by stigmasterol, non-targeted GC/MS metabolite analysis of roots and shoots of maize Zmcyp710a8 and wild type was used. A total of 29 molecular features (13 known and 16 unknown molecular features) were identified in roots and 31 features (17 known and 14 unknown molecular features) in shoots (FIG. 7). The concentration of molecular features correlated with stigmasterol content among genotypes in maize and the features belonged to similar classes including sterol, amino acid, primary metabolism, and unknown features in roots and shoots (FIG. 7).
Since changes in metabolites among the genotypes correlated with stigmasterol content, it was reasoned that exogenous stigmasterol may reverse the metabolite levels in Zmcyp710a8-1 mutant to wild type levels.

[2] = 10 μM sterol feeding, after 4 and 8 h
[3] = roots and shoots of Zmcyp710a8-1, 10 μM sterol, 4 hours

| SMILES | ZmHMGR mRNA (ZmHMGR mRNA; [2]) | ZmSMT2 mRNA (ZmSMT2 mRNA; [2]) | ZmHMGR mRNA levels (ZmHMGR mRNA; [3]) | ZmHMGR mRNA (ZmHMGR mRNA; 10 μM stigmasterol, after 8 h) | ZmSMT2 mRNA levels (ZmSMT2 mRNA; [3]) | ZmSMT2 mRNA (ZmSMT2 mRNA; 10 μM stigmasterol, after 8 h) | levels of selected metabolites (sitosterol, campesterol, myo-inositol) [1] |
| --- | --- | --- | --- | --- | --- | --- | --- |
| CC[C@H](CC[C@@H](C)[C@H]1CC[C@H]2[C@@H]3CC=C4C[C@@H](O)CC[C@]4(C)[C@H]3CC[C@]12C)C(C)C [sitosterol] | did not have a significant impact | did not have a significant impact | – | – | – | – | – |
| CC[C@H](/C=C/[C@@H](C)[C@H]1CC[C@H]2[C@@H]3CC=C4C[C@@H](O)CC[C@]4(C)[C@H]3CC[C@]12C)C(C)C [stigmasterol] | induction | induction | higher | remained elevated | higher | slightly decreased | shifted the levels of sitosterol, campesterol, and myo-inositol toward W22 levels |
